ChEMBL document CHEMBL5291721, “A preclinical secondary pharmacology resource illuminates target-adverse drug reaction associations of marketed drugs” (Nat Commun, 2023)

How the values were obtained:
[1] = molecular target: T1, Sodium-dependent noradrenaline transporter (Homo sapiens, UniProt P23975)
Androgen receptor = molecular target: T2, Androgen receptor (Homo sapiens, UniProt P10275)
T2 sequence (P10275 whole entry): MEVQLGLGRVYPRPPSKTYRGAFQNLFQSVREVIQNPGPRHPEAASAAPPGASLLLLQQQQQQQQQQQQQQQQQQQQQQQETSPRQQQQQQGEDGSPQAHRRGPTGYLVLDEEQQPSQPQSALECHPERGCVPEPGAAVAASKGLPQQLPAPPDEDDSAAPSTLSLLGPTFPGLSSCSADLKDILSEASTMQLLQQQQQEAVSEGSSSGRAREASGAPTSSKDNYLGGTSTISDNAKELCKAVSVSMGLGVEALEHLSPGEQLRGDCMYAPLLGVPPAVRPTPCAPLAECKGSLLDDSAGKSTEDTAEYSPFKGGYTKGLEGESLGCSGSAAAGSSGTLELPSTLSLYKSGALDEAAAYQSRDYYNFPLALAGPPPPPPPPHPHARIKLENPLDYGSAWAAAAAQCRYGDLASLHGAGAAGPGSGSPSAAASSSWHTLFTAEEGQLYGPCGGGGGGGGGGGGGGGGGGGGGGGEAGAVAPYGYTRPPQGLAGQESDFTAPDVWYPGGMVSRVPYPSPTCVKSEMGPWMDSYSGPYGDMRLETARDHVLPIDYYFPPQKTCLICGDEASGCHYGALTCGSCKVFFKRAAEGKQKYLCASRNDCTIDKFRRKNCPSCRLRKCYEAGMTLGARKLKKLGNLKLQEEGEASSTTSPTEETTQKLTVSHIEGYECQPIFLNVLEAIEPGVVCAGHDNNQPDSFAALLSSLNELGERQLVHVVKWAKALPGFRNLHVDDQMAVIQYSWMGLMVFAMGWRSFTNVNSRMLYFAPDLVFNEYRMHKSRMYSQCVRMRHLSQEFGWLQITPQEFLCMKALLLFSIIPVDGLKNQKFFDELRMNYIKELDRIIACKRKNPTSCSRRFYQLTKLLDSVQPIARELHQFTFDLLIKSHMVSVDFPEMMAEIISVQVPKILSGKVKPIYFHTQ

[2] = molecular target: T3, Muscarinic acetylcholine receptor M1 (Homo sapiens, UniProt P11229); type: functional, cell-based
T3 sequence (P11229 whole entry): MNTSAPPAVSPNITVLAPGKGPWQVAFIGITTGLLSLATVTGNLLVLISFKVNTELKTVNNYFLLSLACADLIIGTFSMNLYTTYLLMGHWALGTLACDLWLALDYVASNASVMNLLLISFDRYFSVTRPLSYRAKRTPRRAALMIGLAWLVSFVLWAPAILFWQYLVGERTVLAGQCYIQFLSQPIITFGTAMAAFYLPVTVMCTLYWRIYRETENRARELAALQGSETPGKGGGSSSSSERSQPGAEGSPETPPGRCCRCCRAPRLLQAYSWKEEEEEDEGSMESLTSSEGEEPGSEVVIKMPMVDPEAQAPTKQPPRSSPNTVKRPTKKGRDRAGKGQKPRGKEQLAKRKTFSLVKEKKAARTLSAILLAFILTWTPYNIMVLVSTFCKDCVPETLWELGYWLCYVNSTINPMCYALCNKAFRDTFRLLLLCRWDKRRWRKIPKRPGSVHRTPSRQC

[3] = molecular target: Gamma-aminobutyric acid receptor subunit alpha-1 (Rattus norvegicus, UniProt P62813)
Sequence of Gamma-aminobutyric acid receptor subunit alpha-1 (P62813 whole entry): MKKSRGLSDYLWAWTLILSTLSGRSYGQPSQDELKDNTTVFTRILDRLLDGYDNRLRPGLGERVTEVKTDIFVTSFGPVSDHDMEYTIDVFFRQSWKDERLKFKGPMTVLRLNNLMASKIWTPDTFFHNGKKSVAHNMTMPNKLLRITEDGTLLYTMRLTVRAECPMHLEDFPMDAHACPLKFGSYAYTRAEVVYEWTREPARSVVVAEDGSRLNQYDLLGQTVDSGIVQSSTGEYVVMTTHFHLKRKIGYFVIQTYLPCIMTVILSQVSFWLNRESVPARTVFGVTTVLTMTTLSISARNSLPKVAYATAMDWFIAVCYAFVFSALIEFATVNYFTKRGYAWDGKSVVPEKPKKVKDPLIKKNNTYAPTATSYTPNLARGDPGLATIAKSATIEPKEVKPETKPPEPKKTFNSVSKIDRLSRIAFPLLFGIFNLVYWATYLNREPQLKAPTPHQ

[4] = molecular target: T4, Alpha-1A adrenergic receptor (Homo sapiens, UniProt P35348); type: functional, cell-based
T4 sequence (P35348 whole entry): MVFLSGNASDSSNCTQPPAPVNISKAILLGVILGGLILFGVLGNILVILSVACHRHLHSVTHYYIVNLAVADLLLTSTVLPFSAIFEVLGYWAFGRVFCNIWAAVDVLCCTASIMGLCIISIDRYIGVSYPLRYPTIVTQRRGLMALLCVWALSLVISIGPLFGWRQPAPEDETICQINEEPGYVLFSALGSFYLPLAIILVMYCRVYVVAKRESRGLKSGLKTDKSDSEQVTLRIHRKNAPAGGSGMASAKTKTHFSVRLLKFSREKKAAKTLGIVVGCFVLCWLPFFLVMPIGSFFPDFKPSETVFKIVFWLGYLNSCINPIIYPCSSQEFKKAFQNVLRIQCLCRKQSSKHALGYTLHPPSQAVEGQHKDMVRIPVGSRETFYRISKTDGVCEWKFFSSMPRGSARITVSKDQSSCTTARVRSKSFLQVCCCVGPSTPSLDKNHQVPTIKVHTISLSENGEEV

[5] = molecular target: T5, 5-hydroxytryptamine receptor 1A (Homo sapiens, UniProt P08908); type: functional, cell-based
T5 sequence (P08908 whole entry): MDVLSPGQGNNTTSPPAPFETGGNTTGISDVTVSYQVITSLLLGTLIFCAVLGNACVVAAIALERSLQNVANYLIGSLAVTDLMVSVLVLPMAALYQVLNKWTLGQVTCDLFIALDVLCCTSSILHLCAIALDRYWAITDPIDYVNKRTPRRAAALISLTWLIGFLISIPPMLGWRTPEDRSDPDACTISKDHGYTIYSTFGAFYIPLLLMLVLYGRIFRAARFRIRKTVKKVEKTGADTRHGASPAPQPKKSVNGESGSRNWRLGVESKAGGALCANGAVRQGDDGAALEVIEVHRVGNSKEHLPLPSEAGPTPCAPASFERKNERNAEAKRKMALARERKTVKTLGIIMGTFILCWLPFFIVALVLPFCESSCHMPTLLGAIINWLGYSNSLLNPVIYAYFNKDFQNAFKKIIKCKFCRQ

[6] = molecular target: T1, Sodium-dependent noradrenaline transporter; remark: listed apart in the source
[7] = molecular target: T6, Alpha-2A adrenergic receptor (Homo sapiens, UniProt P08913); type: functional, cell-based
T6 sequence (P08913 whole entry): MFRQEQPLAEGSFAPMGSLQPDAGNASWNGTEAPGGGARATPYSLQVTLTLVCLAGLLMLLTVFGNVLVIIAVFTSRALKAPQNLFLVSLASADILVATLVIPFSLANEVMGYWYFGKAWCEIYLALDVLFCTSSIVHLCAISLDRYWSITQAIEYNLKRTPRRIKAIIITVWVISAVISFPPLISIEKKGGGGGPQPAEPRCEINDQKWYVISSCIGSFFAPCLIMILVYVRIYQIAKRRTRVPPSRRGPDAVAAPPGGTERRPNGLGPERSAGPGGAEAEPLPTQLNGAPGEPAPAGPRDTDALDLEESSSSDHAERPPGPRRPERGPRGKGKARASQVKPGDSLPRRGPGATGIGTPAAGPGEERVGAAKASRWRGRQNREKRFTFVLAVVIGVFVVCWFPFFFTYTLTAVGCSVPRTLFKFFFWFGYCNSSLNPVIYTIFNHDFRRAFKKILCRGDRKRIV

[8] = molecular target: T6, Alpha-2A adrenergic receptor; type: functional, cell-based; remark: listed apart in the source
Also: assay procedure not described here.

T1 sequence (P23975 whole entry): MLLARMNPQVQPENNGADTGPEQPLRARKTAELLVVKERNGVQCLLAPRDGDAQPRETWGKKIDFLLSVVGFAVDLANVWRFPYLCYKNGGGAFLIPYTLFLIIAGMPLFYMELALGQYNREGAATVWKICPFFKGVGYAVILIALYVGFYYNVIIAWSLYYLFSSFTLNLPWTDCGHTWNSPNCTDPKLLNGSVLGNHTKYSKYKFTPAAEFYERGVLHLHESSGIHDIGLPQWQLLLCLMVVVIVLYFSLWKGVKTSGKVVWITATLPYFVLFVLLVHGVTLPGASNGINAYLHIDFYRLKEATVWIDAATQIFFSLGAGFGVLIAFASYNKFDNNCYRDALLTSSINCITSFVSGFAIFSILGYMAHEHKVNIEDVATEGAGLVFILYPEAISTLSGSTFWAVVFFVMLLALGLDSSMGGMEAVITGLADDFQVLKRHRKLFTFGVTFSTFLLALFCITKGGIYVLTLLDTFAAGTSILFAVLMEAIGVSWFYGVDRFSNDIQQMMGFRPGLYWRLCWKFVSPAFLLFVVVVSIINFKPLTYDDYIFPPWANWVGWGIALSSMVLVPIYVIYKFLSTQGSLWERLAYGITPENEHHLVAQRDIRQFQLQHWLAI

## CC(C)(C)NC(=O)N[C@H](C(=O)N1C[C@H]2[C@@H]([C@H]1C(=O)NC(CC1CCC1)C(=O)C(N)=O)C2(C)C)C(C)(C)C (some centres undefined) [BOCEPREVIR]
[1]
  AC50: > 30 µM
Androgen receptor
  AC50: > 30 µM
[2]
  AC50: > 30 µM
[3]
  AC50: > 30 µM

## N#Cc1ccc(Oc2ccc3c(c2)COB3O)cc1 [CRISABOROLE]
[1]
  AC50: > 30 µM
Androgen receptor
  AC50: > 30 µM
[2]
  AC50: > 30 µM
[3]
  AC50: > 30 µM

## C[C@@H]1C[C@H]2[C@@H]3C[C@H](F)C4=CC(=O)C=C[C@]4(C)[C@@]3(F)[C@@H](O)C[C@]2(C)[C@@]1(OC(=O)c1ccco1)C(=O)SCF [FLUTICASONE FUROATE]
[4]
  AC50: > 30 µM
[5]
  AC50: > 10 µM
[1]
  AC50: > 30 µM
[6]
  AC50: > 10 µM
Androgen receptor
  AC50: 0.13 µM
[2]
  AC50: > 30 µM
[3]
  AC50: > 30 µM
[7]
  AC50: > 10 µM
[8]
  AC50: > 10 µM

## CN1CCCN(C(c2ccccc2)c2ccc(Cl)cc2)CC1 (centres undefined) [HOMOCHLORCYCLIZINE]
[1]
  AC50: 12.9 µM
Androgen receptor
  AC50: > 30 µM
[2]
  AC50: > 30 µM
[3]
  AC50: > 30 µM

## O=C(CCC/C=C\C[C@@H]1[C@@H](CC[C@@H](O)CCc2ccccc2)[C@H](O)C[C@@H]1O)OCCCCO[N+](=O)[O-] [LATANOPROSTENE BUNOD]
[1]
  AC50: > 30 µM
Androgen receptor
  AC50: > 30 µM
[2]
  AC50: > 30 µM
[3]
  AC50: > 30 µM

## Cc1oc(=O)oc1COC(=O)[C@@H]1N2C(=O)[C@@H](NC(=O)[C@H](N)c3ccccc3)[C@H]2SC1(C)C [LENAMPICILLIN]
[1]
  AC50: > 30 µM
Androgen receptor
  AC50: > 30 µM
[2]
  AC50: > 30 µM
[3]
  AC50: > 30 µM

## COC(=O)C[C@](O)(CCCC(C)(C)O)C(=O)O[C@@H]1C(OC)=C[C@]23CCCN2CCc2cc4c(cc2[C@H]13)OCO4 [OMACETAXINE MEPESUCCINATE]
[1]
  AC50: > 30 µM
Androgen receptor
  AC50: > 30 µM
[2]
  AC50: > 30 µM
[3]
  AC50: > 30 µM

## C[C@@H]1C[C@H]2[C@@H]3C[C@H](F)C4=CC(=O)C=C[C@]4(C)[C@H]3[C@@H](O)C[C@]2(C)[C@@]1(O)C(=O)CO [PARAMETHASONE]
[1]
  AC50: > 30 µM
Androgen receptor
  AC50: 3.48 µM
[2]
  AC50: > 30 µM
[3]
  AC50: > 30 µM

## CCCn1cnc2c1c(=O)n(CCCCC(C)=O)c(=O)n2C [PROPENTOFYLLINE]
[1]
  AC50: > 30 µM
Androgen receptor
  AC50: > 30 µM
[2]
  AC50: > 30 µM
[3]
  AC50: > 30 µM

## COc1cc(C)c2c(Oc3cccc(C(F)(F)F)c3)c(OC)cc(NC(C)CCCN)c2n1 (centres undefined) [TAFENOQUINE]
[1]
  AC50: 2.26 µM
Androgen receptor
  AC50: > 30 µM
[2]
  AC50: > 3 µM
[3]
  AC50: > 30 µM

## CCCSc1nc(N[C@@H]2C[C@H]2c2ccc(F)c(F)c2)c2nnn([C@@H]3C[C@H](OCCO)[C@@H](O)[C@H]3O)c2n1 [TICAGRELOR]
[1]
  AC50: 14.8 µM
Androgen receptor
  AC50: > 30 µM
[2]
  AC50: > 30 µM
[3]
  AC50: > 30 µM
